Measurements: ChEMBL document CHEMBL1201862, “PubChem BioAssay data set” (2004)
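48-hour exposure; five concentrations; linearly interpolated endpoints. Abbreviation: GI50, concentration required for 50% inhibition of growth.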 Calls of active or inactive are those of the source. Rule as the data show it: active = GI50 up to about 1.1 µM and inactive = higher.

Key:
Assay in all cases: NCI anticancer screen, dose series, 48 h
MDA-MB-435 = test system: MDA-MB-435
SF-539 = test system: SF-539
SK-MEL-28 = test system: SK-MEL-28
OVCAR-4 = test system: OVCAR-4
A498 = test system: A498
OVCAR-3 = test system: OVCAR-3
MOLT-4 = test system: MOLT-4
NCI-H226 = test system: NCI-H226
IGROV-1 = test system: IGROV-1
CAKI-1 = test system: CAKI-1
Malme-3M = test system: Malme-3M
HOP-62 = test system: HOP-62
MCF7 = test system: MCF7
ACHN = test system: ACHN
RXF 393 = test system: RXF 393
OVCAR-5 = test system: OVCAR-5
SNB-19 = test system: SNB-19
OVCAR-8 = test system: OVCAR-8
U-251 = test system: U-251
UO-31 = test system: UO-31
HCT-15 = test system: HCT-15
Hs-578T = test system: Hs-578T
UACC-257 = test system: UACC-257
SF-295 = test system: SF-295
SK-OV-3 = test system: SK-OV-3
A549 = test system: A549
NCI/ADR-RES = test system: NCI/ADR-RES
HOP-92 = test system: HOP-92
786-0 = test system: 786-0
SN12C = test system: SN12C
DU-145 = test system: DU-145
COLO 205 = test system: COLO 205
NCI-H522 = test system: NCI-H522
RPMI-8226 = test system: RPMI-8226
KM12 = test system: KM12
HT-29 = test system: HT-29
CCRF-CEM = test system: CCRF-CEM
SK-MEL-2 = test system: SK-MEL-2
HCT-116 = test system: HCT-116
TK-10 = test system: TK-10
NCI-H23 = test system: NCI-H23
SF-268 = test system: SF-268
NCI-H460 = test system: NCI-H460
BT-549 = test system: BT-549
PC-3 = test system: PC-3
SNB-75 = test system: SNB-75
K562 = test system: K562
SK-MEL-5 = test system: SK-MEL-5
MDA-MB-231 = test system: MDA-MB-231
SW-620 = test system: SW-620
LOX IMVI = test system: LOX IMVI
M14 = test system: M14
T47D = test system: T47D
MDA-N = test system: MDA-N
EKVX = test system: EKVX
HL-60 = test system: HL-60
UACC-62 = test system: UACC-62

CC(Nc1ccc(Cl)c(Cl)c1)c1ccncc1 (stereo unspecified) was tested, and the GI50 (MDA-MB-435) was 29.4 µM (inactive), the GI50 (SF-539) was 30.8 µM (inactive) and the GI50 (SK-MEL-28) was 35.7 µM (inactive). The GI50 (OVCAR-4) was 58.2 µM (inactive), the GI50 (A498) was 20.1 µM (inactive) and the GI50 (OVCAR-3) was 26.8 µM (inactive). The GI50 (MOLT-4) was 19.5 µM (inactive), the GI50 (NCI-H226) was 17.9 µM (inactive) and the GI50 (IGROV-1) was 25.4 µM (inactive). The GI50 (CAKI-1) was 31 µM (inactive), the GI50 (Malme-3M) was 34.3 µM (inactive) and the GI50 (HOP-62) was 20.9 µM (inactive). For the same compound, the GI50 (MCF7) was 22.4 µM (inactive), the GI50 (ACHN) was 19.1 µM (inactive) and the GI50 (RXF 393) was 17.6 µM (inactive). For the same compound, the GI50 (OVCAR-5) was > 10 µM (inactive), the GI50 (SNB-19) was 22.5 µM (inactive) and the GI50 (OVCAR-8) was 21.8 µM (inactive). For the same compound, the GI50 (U-251) was 19.9 µM (inactive), the GI50 (UO-31) was 11.6 µM (inactive) and the GI50 (HCT-15) was 40.3 µM. For the same compound, the GI50 (Hs-578T) was > 10 µM (inactive), the GI50 (UACC-257) was 26.2 µM (inactive) and the GI50 (SF-295) was 23.9 µM (inactive). For the same compound, the GI50 (SK-OV-3) was 11.4 µM (inactive), the GI50 (A549) was 10.5 µM (inactive) and the GI50 (NCI/ADR-RES) was 28.1 µM (inactive). The GI50 (HOP-92) was 18.9 µM (inactive), the GI50 (786-0) was 29 µM (inactive) and the GI50 (SN12C) was 50.7 µM (inactive). The GI50 (DU-145) was 30.2 µM (inactive), the GI50 (COLO 205) was 16.5 µM (inactive) and the GI50 (NCI-H522) was 12.5 µM (inactive). The GI50 (RPMI-8226) was 5.75 µM (inactive), the GI50 (KM12) was 14.9 µM (inactive) and the GI50 (HT-29) was 23.7 µM (inactive). For the same compound, the GI50 (CCRF-CEM) was 20.7 µM (inactive), the GI50 (SK-MEL-2) was 22.9 µM (inactive) and the GI50 (HCT-116) was 16.6 µM (inactive). For the same compound, the GI50 (TK-10) was 31.9 µM (inactive), the GI50 (NCI-H23) was 31.4 µM (inactive) and the GI50 (SF-268) was 44 µM (inactive). For the same compound, the GI50 (NCI-H460) was 16.6 µM (inactive), the GI50 (BT-549) was 26.1 µM (inactive) and the GI50 (PC-3) was 19.4 µM (inactive). For the same compound, the GI50 (SNB-75) was 23 µM (inactive), the GI50 (K562) was 45.3 µM (inactive) and the GI50 (SK-MEL-5) was 16.7 µM (inactive). The GI50 (MDA-MB-231) was 16 µM (inactive), the GI50 (SW-620) was 20.7 µM (inactive) and the GI50 (LOX IMVI) was 18.4 µM (inactive). The GI50 (M14) was 29 µM (inactive), the GI50 (T47D) was 51.6 µM (inactive) and the GI50 (MDA-N) was 24.6 µM (inactive). The GI50 (EKVX) was 39.9 µM (inactive).

For CSc1nc2ccccc2c(=O)n1/N=C1\C(=O)N(CN2CCOCC2)c2ccc(Cl)cc21, the GI50 (MDA-MB-435) was 28.4 µM (inactive), the GI50 (SF-539) was 26.7 µM (inactive) and the GI50 (SK-MEL-28) was 56.2 µM (inactive). For the same compound, the GI50 (OVCAR-4) was 33.8 µM (inactive), the GI50 (A498) was 26.2 µM (inactive) and the GI50 (OVCAR-3) was 54.5 µM (inactive). The GI50 (MOLT-4) was 10.9 µM (inactive), the GI50 (NCI-H226) was 53.3 µM (inactive) and the GI50 (IGROV-1) was 16.8 µM (inactive). For the same compound, the GI50 (CAKI-1) was 25.5 µM (inactive), the GI50 (Malme-3M) was > 100 µM (inactive) and the GI50 (HOP-62) was 34.3 µM (inactive). The GI50 (HL-60) was 8.61 µM (inactive), the GI50 (MCF7) was 19.6 µM (inactive) and the GI50 (ACHN) was 26.1 µM (inactive). The GI50 (RXF 393) was 18.1 µM (inactive), the GI50 (OVCAR-5) was 26 µM (inactive) and the GI50 (SNB-19) was 46.8 µM (inactive). The GI50 (OVCAR-8) was 39.6 µM (inactive), the GI50 (U-251) was 32.5 µM (inactive) and the GI50 (UO-31) was 28.1 µM (inactive). The GI50 (HCT-15) was 22.9 µM, the GI50 (Hs-578T) was 44.2 µM (inactive) and the GI50 (UACC-257) was 19.8 µM (inactive). For the same compound, the GI50 (SF-295) was 46.1 µM (inactive), the GI50 (SK-OV-3) was 30.6 µM (inactive) and the GI50 (A549) was 35.4 µM (inactive). For the same compound, the GI50 (NCI/ADR-RES) was > 100 µM (inactive), the GI50 (HOP-92) was 67 µM (inactive) and the GI50 (786-0) was 34.8 µM (inactive). The GI50 (SN12C) was 48.2 µM (inactive), the GI50 (DU-145) was 18.5 µM (inactive) and the GI50 (COLO 205) was 17.1 µM (inactive). For the same compound, the GI50 (NCI-H522) was 31.1 µM (inactive), the GI50 (KM12) was 29.5 µM (inactive) and the GI50 (HT-29) was 23.7 µM (inactive). For the same compound, the GI50 (CCRF-CEM) was 10.6 µM (inactive), the GI50 (SK-MEL-2) was 20.6 µM (inactive) and the GI50 (HCT-116) was 22.4 µM (inactive). The GI50 (TK-10) was 16.9 µM (inactive), the GI50 (NCI-H23) was 21.8 µM (inactive) and the GI50 (SF-268) was 36.9 µM (inactive). For the same compound, the GI50 (NCI-H460) was 15.2 µM (inactive), the GI50 (BT-549) was 15.6 µM (inactive) and the GI50 (PC-3) was 29 µM (inactive). For the same compound, the GI50 (UACC-62) was 6.68 µM (inactive), the GI50 (SNB-75) was 41.5 µM (inactive) and the GI50 (K562) was 5.77 µM (inactive). For the same compound, the GI50 (SK-MEL-5) was 38.7 µM (inactive), the GI50 (MDA-MB-231) was 47.4 µM (inactive) and the GI50 (SW-620) was 17.6 µM (inactive). For the same compound, the GI50 (LOX IMVI) was 15.2 µM (inactive), the GI50 (M14) was 26.5 µM (inactive) and the GI50 (T47D) was 16.5 µM (inactive). The GI50 (MDA-N) was 31.8 µM (inactive) and the GI50 (EKVX) was 2.6 µM (inactive).
